Key:
[1] = tested on: IL-1α release in peritoneal macrophages; test: IL-1α release in LPS activated PEC (ELISA); assay type: cell-based, murine; settings: Mus musculus, Peritoneal macrophage, at 24 hours after LPS, FIG. 19, read-out: maximum inhibition of IL-1α release
Protocol: (§1) Murine peritoneal exudate cell macrophages (PEC) were isolated by perfusion of mouse peritoneum and plated into 96-well trays at 5×10^5 cells per well. Cells were stimulated with 5 μg/ml Salmonella abortus equi -derived endotoxin (LPS; Sigma Chemical Co., L-1887) or […] IL-1α (Genzyme; Cambridge, Mass.) with or without the addition of CT1501R added to the cultures one hour prior to addition of the stimulus. At various times thereafter, supernatants were removed and levels of either TNF-α or IL-1α were assayed using commercial 96-well microtiter immunoassay kits (Genzyme; TNF; Endogen, Boston, Mass.; IL-1α) according to manufacturer's specifications. For the adhesion studies, early passage human umbilical vein endothelial cells (HUVEC) were obtained. from commercial suppliers (Clonetics, San Diego, Calif. or Cell Systems, Seattle, Wash.) and cultured in defined, Hepes buffered, serum free medium (Cell Systems, cat 301-180) supplemented with acidic FGF (Cell Systems cat 401-111). 4000 cells were plated into each well of a 96-well microtiter plate and allowed to incubate for 72 hrs at 37° C. […] After addition of […] Hanks Balanced Salt Solution (HBSS), the microtiter plate was then analyzed on a Millipore Cytofluor fluorescent plate reader (excitation 488 nm; emission 525 nm). […]

[2] = tested on: U937 cells; test: adhesion of IL-1α activated U937 cells to HUVEC; assay type: cell-based, human; settings: 250 μM pre-treatment of U937 cells, FIG. 22
Protocol: as §1

[3] = tested on: lysophosphatidic acid acyl transferase (LPAAT); test: in vitro inhibition of LPAAT in 3T3 Ras-transformed fibroblasts stimulated with IL-1β; assay type: cell-based
Protocol: FIG. 17 illustrates a comparison of CT1501R, its S isomer CT1501S, and PTX on in vitro inhibition of lysophosphatidic acid acyl transferase (LPAAT), an enzyme involved in second messenger signaling. […] LPAAT activity was determined in 3T3 Ras-transformed fibroblasts stimulated with IL-1β.
One in vitro assay measures inhibition of the relevant enzymes lysophosphatidic acid acyltransferase (LPAAT) and phosphatidic acid phosphoryl hydrolase (PAPH). The assay involves incubating of target cells with a primary stimulus (e.g., a variety of cytokines, growth factors, oncogene products, putative therapeutic agents, irradiation, viral infection, toxins, bacterial infection and the products thereof, and any stimulus which, if not counteracted, has a deleterious effect on the target cell) in the presence or absence of an inventive compound at varying dosage levels. Target cells include, for example, subcellular entities, such as, microsomes derived from mesenchymal and/or ectodermal cells, particularly microsomes from marrow stromal cells or human or rat mesangial cells; microsomes or synaptosomes derived from brain; plasma membrane-enriched microsomes, plasma membranes derived as described in Bursten et at. (J. Biol. Chem. 226:20732-20743, 1991 ), or detergent-solubilized microsomes; synaptosomes, and membranes or other cell preparations solubilized using, for example, NP-40, Miranal, SDS or other neutral detergents; and detergent-solubilized, recombinant, or further purified preparations of cell proteins, including the proteins LPAAT and/or PAPH. After incubation for short periods of time, cell lipids are extracted and assayed by […] according to standard procedures. Briefly, lipids are extracted using, for example, chloroform:methanol 2:1 (v/v), and the extracts are then subjected to HPLC as described in Bursten and Harris, Biochemistry 30:6195-6203, 1991. A Rainin® mu-Porasil column is used with a 3:4 hexane:propanol organic carrier and a 1-10% water gradient during the first 10 minutes of separation. Detection of the peaks in the elution pattern is by absorption in the range of ultraviolet which detects isolated double bonds. The relevant peaks of unsaturated PA and DAG are shown in the elution pattern. It is important to note that the assay method permits discrimination between various forms of PA and DAG so that those relevant to the pathway affected by the (R) or (S) compounds of the invention can be measured directly. Confirmation of the nature of the acyl substituents of these components is accomplished using fast-atom bombardment mass spectroscopy. Thus, the relevant unsaturated (non-arachidonic) PA and DAG subspecies may be detected. The time periods employed are 5-60 seconds after stimulation with the primary stimulus, such as a cytokine. This technique permits assessment of the levels of various lipid components as a function of time.

[4] = tested on: PBMC (peripheral blood mononuclear cells); test: two-way mixed lymphocyte reaction (MLR); assay type: cell-based, human; settings: FIG. 1
Excerpt: Various in vitro assays can be used to measure effects of the inventive compounds to module immune activity and have antitumor activity using a variety of cellular types. For example, a mixed lymphocyte reaction (MLR) provides a valuable screening tool to determine biological activity of each inventive compound. In the MLR, PBMCs (peripheral blood mononuclear cells) are obtained by drawing whole blood from healthy volunteers in a heparinized container and diluted with an equal volume of hanks balanced salt solution (HBSS). This mixture is layered on a sucrose density gradient, such as a Ficoll-Hypaque® gradient (specific gravity 1.08), and centrifuged at 1000× g for 25 minutes at room temperature or cooler. PBMC are obtained from a band at a plasma-Ficoll interface, separated and washed at least twice in a saline solution, such as HBSS. Contaminating red cells are lysed, such as by ACK lysis for 10 min at 37° C., and the PBMCs are washed twice in HBSS. The pellet of purified PBMCs is resuspended in complete medium, such as RPMI 1640 plus 20% human inactivated serum. Proliferative response of PBMC to allogeneic stimulation is determined in a two-way MLR performed in a 96-well microtiter plate. […] At the conclusion of the incubation tritiated thymidine is added (for example, 1 μCi/well of 40 to 60 Ci/mmole) and proliferation determined by liquid scintillation counting. […]

**Q.** `C[C@@H](O)CCCCn1c(=O)c2c(ncn2C)n(C)c1=O` [CT1501R, (R)-1-(5-hydroxyhexyl)-3,7-dimethylxanthine] was tested. Which inhibition at 250 µM [1] did it give?
**A.** The inhibition at 250 µM was about 50%.

**Q.** What about the “IL-1α mediated increase in adhesion of U937 cells to HUVEC” value [2] of the same molecule?
**A.** The value was “effectively blocked the IL-1α mediated increase in adhesion to HUVEC to near background levels”.

**Q.** What about the “potency relative to the S enantiomer” value [3] of the same molecule?
**A.** Its value is “many times more potent than the corresponding S enantiomer”.

**Q.** What about the “potency relative to the racemic mixture (M1)” value [3] of the same molecule?
**A.** Its value is “two to three time more potent than the racemic mixture”.

**Q.** What about the “inhibition of LPAAT enzyme activity” value ([3]; 3T3 Ras-transformed fibroblasts, IL-1β, FIG. 17) of the same molecule?
**A.** The value was “significantly inhibited enzyme activity”.

**Q.** What about the “proliferative response of PBMC to allogeneic stimulation” value [4] of the same molecule?
**A.** Its value is “showed dose-response activity”.

From patent US5567704A, “R-enatiomerically pure hydroxylated xanthine compounds to treat baldness” (priority 1995, dated 1996)
